From patent US12502362B2, “Inhibitors of nucleotidyltransferase superfamily enzymes as antibiotics” (priority 2017, dated 2025)
≈ marks a conversion by molar mass, not a printed value.

Experiments:
[1] = system: S. aureus (ATCC 29213); experiment: MIC80 on S. aureus; format: cell-based, Staphylococcus aureus; details: Staphylococcus aureus, ATCC 29213 / MSSA, read-out: MIC80 S. aureus, S. aureus ATCC 29213 (MSSA); ≥80% growth inhibition
[2] = system: Acinetobacter baumannii (Abl, from a patient); experiment: microbe, parasite or virus in culture; format: cell-based
[3] = system: E. coli (ATCC 35218); experiment: microbe, parasite or virus in culture; format: cell-based; details: for MIC80: Escherichia coli, ATCC35218, read-out: MIC80 E. coli, E. coli ATCC 35218; for MIC80 E. coli: E. coli ATCC 35218
[4] = Cytotoxicity assay (CC50), MTS; format: cell-based, human; details: human, HepG2-derived hepatoblastoma cell line (HEPDES19), HEPDES19 cells
Procedure: (§1) To further characterize the compounds, the minimal inhibitory concentration (MIC80) were determined for selected compounds. MIC80 is defined as the compound concentration at which ≥80% bacterial growth is inhibited compare to untreated controls. Meanwhile, for the selected compounds, cytotoxicity assays (CC50) were performed on a HepG2-derived hepatoblastoma cell line (HEPDES19). […] For CC50 evaluation, soluble tetrazolium dye (MTS) was used to measure mitochondrial toxicity in a human hepatoblastoma cell line (18). The bacteria (E. coli, S. saprophyticus and A. baumannii) used in MIC80 measurements were the same as that in the primary screening, but for Staphylococcus, S. aureus is used primarily because it is a common pathogen in Staphylococcaeae family, while S. saprophyticus is part of the normal human flora.

[5] = system: HepG2-derived hepatoblastoma cell line (HEPDES19); experiment: Cytotoxicity assay (CC50), MTS; format: cell-based, human; details: HEPDES19 cells
Procedure: as §1

[6] = system: S. aureus and/or S. saprophyticus; experiment: MIC80 on S. aureus and/or S. saprophyticus; format: cell-based; details: read-out: MIC80 against S. aureus and/or S. saprophyticus
Procedure: as §1, with “(HEPDES19). […] For the MIC80 measurements, a 1.5 fold dilution series of the compounds was prepared in Mueller-Hinton II broth.” for “(HEPDES19).”, “flora. S. aureus (ATCC 29213) is methicillin-sensitive Staphylococcus aureus (MSSA) strain and it was used as a model strain to measure the MIC80.” for “flora.”

[7] = system: S. aureus ATCC strains and methicillin-resistant Staphylococcus aureus (MRSA); experiment: MIC80 on S. aureus ATCC strains and MRSA; format: cell-based
Procedure: as §1

[8] = system: Staphylococcus epidermidis; experiment: MIC80 on S. epidermidis; format: cell-based
Procedure: as §1, with “(HEPDES19). […] For the MIC80 measurements, a 1.5 fold dilution series of the compounds was prepared in Mueller-Hinton II broth.” for “(HEPDES19).”, “flora. S. aureus (ATCC 29213) is methicillin-sensitive Staphylococcus aureus (MSSA) strain and it was used as a model strain to measure the MIC80.” for “flora.”
(§2) It was also tested whether compounds #63 and #285 can inhibit other coagulase-negative Staphylococcus (CNS) including S. epidermidis, S. hominis, etc. […] .

[9] = system: Staphylococcus hominis; experiment: MIC80 on S. hominis; format: cell-based
Procedure: as §1, with “(HEPDES19). […] For the MIC80 measurements, a 1.5 fold dilution series of the compounds was prepared in Mueller-Hinton II broth.” for “(HEPDES19).”, “flora. S. aureus (ATCC 29213) is methicillin-sensitive Staphylococcus aureus (MSSA) strain and it was used as a model strain to measure the MIC80.” for “flora.”
as §2

[10] = system: Coagulase negative Staphylococcus; experiment: MIC80 on coagulase negative Staphylococcus; format: cell-based
Procedure: as §1, with “(HEPDES19). […] For the MIC80 measurements, a 1.5 fold dilution series of the compounds was prepared in Mueller-Hinton II broth.” for “(HEPDES19).”, “flora. S. aureus (ATCC 29213) is methicillin-sensitive Staphylococcus aureus (MSSA) strain and it was used as a model strain to measure the MIC80.” for “flora.”
as §2

[11] = system: Citrobacter koseri; experiment: microbe, parasite or virus in culture; format: cell-based
Procedure: as §1
(§3) All these MDR-bacteria are at least resistant to two classes of the antibiotics among five groups and/or specific antibiotics including quinolones/fluorquinolones, carbapenems, cephalosporins, aminoglycosides and piperacillin-tazobactam.

[12] = system: Enterobacter cloacae complex; experiment: microbe, parasite or virus in culture; format: cell-based
Procedure: as §1, §3

[13] = system: Klebsiella pneumoniae; experiment: microbe, parasite or virus in culture; format: cell-based
Procedure: as §1, §3

[14] = system: MDR E. coli; experiment: microbe, parasite or virus in culture; format: cell-based
Procedure: as §1, §3

[15] = system: MDR Enterobacteriaceae; experiment: organism not typed; format: cell-based
Procedure: as §1, §3

[16] = system: Morganella morganii; experiment: microbe, parasite or virus in culture; format: cell-based
Procedure: as §1, §3

`COc1ccccc1C(=O)Oc1cccccc1=O` [Compound 285] showed an MIC80 [1] of 10.3 µM (≈ 2.64 µg/mL), an MIC80 ([2]; Acinetobacter baumannii, read-out: MIC80 A. baumannii, A. baumannii Ab1, MDR patient isolate) of 44.4 µM (≈ 11.4 µg/mL) and an MIC80 [3] of 100 µM (≈ 25.6 µg/mL). For the same compound, the CC50 [4] was greater than 50 µM, the CC50 [5] was no less than 100 µM and the MIC80 [6] was less than 20 µM. The MIC80 ([7]; ATCC 25923 / MRSA, S. aureus ATCC 25923) was 8.8 µM (≈ 2.26 µg/mL), the MIC80 ([7]; ATCC 29213 / MRSA, S. aureus ATCC 29213 (Table 3)) was 8.8 µM (≈ 2.26 µg/mL) and the MIC80 ([7]; BAA-976 / MRSA, S. aureus ATCC BAA 976) was 8.8 µM (≈ 2.26 µg/mL). The MIC80 ([7]; BAA-977 / MRSA, S. aureus ATCC BAA 977) was 8.8 µM (≈ 2.26 µg/mL), the MIC80 ([7]; MRSA, Sa1 (MRSA)) was 8.8 µM (≈ 2.26 µg/mL) and the MIC80 ([7]; MRSA, Sa2 (MRSA)) was 8.8 µM (≈ 2.26 µg/mL). It also gave an MIC80 ([7]; MRSA, Sa3 (MRSA)) of 8.8 µM (≈ 2.26 µg/mL), an MIC80 ([7]; MRSA, Sa5 (MRSA)) of 8.8 µM (≈ 2.26 µg/mL) and an MIC80 ([7]; MRSA, Sa6 (MRSA)) of 8.8 µM (≈ 2.26 µg/mL). For the same compound, the MIC80 ([7]; MRSA, Sa7 (MRSA)) was 8.8 µM (≈ 2.26 µg/mL), the MIC80 ([7]; MRSA, Sa8 (MRSA)) was 8.8 µM (≈ 2.26 µg/mL) and the MIC80 ([7]; MRSA, Sa9 (MRSA)) was 8.8 µM (≈ 2.26 µg/mL). The MIC80 ([7]; MRSA, Sa10 (MRSA)) was 8.8 µM (≈ 2.26 µg/mL), the MIC80 ([7]; MRSA, Sa11 (MRSA)) was 8.8 µM (≈ 2.26 µg/mL) and the MIC80 ([7]; MRSA, Sa12 (MRSA)) was 8.8 µM (≈ 2.26 µg/mL). For the same compound, the MIC80 ([7]; MRSA, Sa14 (MRSA)) was 8.8 µM (≈ 2.26 µg/mL), the MIC80 ([7]; MRSA, Sa15 (MRSA)) was 5.9 µM (≈ 1.51 µg/mL) and the MIC80 ([7]; MRSA, Sa16 (MRSA)) was 8.8 µM (≈ 2.26 µg/mL). It also gave an MIC80 ([7]; MRSA, Sa17 (MRSA)) of 8.8 µM (≈ 2.26 µg/mL), an MIC80 ([7]; MRSA, Sa18 (MRSA)) of 8.8 µM (≈ 2.26 µg/mL) and an MIC80 ([7]; MRSA, Sa19 (MRSA)) of 8.8 µM (≈ 2.26 µg/mL). The MIC80 ([7]; MRSA, Sa20 (MRSA)) was 13.2 µM (≈ 3.38 µg/mL), the MIC80 ([7]; MRSA, Sa21 (MRSA)) was 5.9 µM (≈ 1.51 µg/mL) and the MIC80 ([7]; MRSA, Sa22 (MRSA)) was 5.9 µM (≈ 1.51 µg/mL). The MIC80 ([7]; MRSA, Sa23 (MRSA)) was 8.8 µM (≈ 2.26 µg/mL), the MIC80 ([8]; Se1 (Staphylococcus epidermidis)) was 8.8 µM (≈ 2.26 µg/mL) and the MIC80 ([8]; Se2 (Staphylococcus epidermidis)) was 6.6 µM (≈ 1.69 µg/mL). It also gave an MIC80 ([8]; Se3 (Staphylococcus epidermidis)) of 6.6 µM (≈ 1.69 µg/mL), an MIC80 ([8]; Se4 (Staphylococcus epidermidis)) of 9.9 µM (≈ 2.54 µg/mL) and an MIC80 ([8]; Se5 (Staphylococcus epidermidis)) of 9.9 µM (≈ 2.54 µg/mL). For the same compound, the MIC80 ([9]; Sh1 (Staphylococcus hominis)) was 9.9 µM (≈ 2.54 µg/mL), the MIC80 ([9]; Sh2 (Staphylococcus hominis)) was 9.9 µM (≈ 2.54 µg/mL) and the MIC80 ([9]; Sh3 (Staphylococcus hominis)) was 6.6 µM (≈ 1.69 µg/mL). The MIC80 ([10]; CNS1 (Coagulase negative Staphylococcus)) was 9.9 µM (≈ 2.54 µg/mL) and the MIC80 ([10]; CNS2 (Coagulase negative Staphylococcus)) was 6.6 µM (≈ 1.69 µg/mL).
With `CCn1cc(C(=O)O)c(=O)c2cnc(N3CCN(C(=O)NC)CC3)nc21` [Compound 322] the “MIC80 A. baumannii” value ([2]; A. baumannii Ab1, MDR patient isolate) was greater than 100 µM, the “inhibition of E. coli (in words)” value [3] was “only modestly inhibited” and the “MIC80 E. coli” value [3] was 29.6 µM (≈ 10.7 µg/mL). For the same compound, the CC50 [5] was no less than 100 µM, the MIC80 ([11]; Ck1 (Citrobacter koseri)) was greater than 100 µM and the MIC80 ([12]; Ecc1 (Enterobacter cloacae complex)) was 44.4 µM (≈ 16 µg/mL). It also gave an MIC80 ([12]; one Enterobacter cloacae complex strain) of 66.7 µM (≈ 24 µg/mL), an MIC80 ([13]; Kp1 (Klebsiella pneumonia)) greater than 100 µM and an MIC80 ([13]; Kp6 (Klebsiella pneumonia)) greater than 100 µM. It also gave an MIC80 ([14]; Ec1 (MDR E. coli)) greater than 100 µM, an MIC80 ([14]; Ec2 (MDR E. coli)) of 66.7 µM (≈ 24 µg/mL) and an MIC80 ([14]; Ec3 (MDR E. coli)) greater than 100 µM. It also gave an MIC80 ([14]; Ec4 (MDR E. coli)) greater than 100 µM, an MIC80 ([14]; Ec5 (MDR E. coli)) greater than 100 µM and an MIC80 ([14]; one MDR E. coli) of 44.4 µM (≈ 16 µg/mL). For the same compound, the “inhibition of MDR Enterobacteriaceae (in words)” value ([15]; except one MDR E. coli and one Enterobacter cloacae complex strain) was “No obvious inhibition” and the MIC80 ([16]; Mm1 (Morganella morganii)) was greater than 100 µM.
In the case of `O=C(Sc1cccccc1=O)c1ccccc1` [Compound 364], the MIC80 [1] is reported as 13.2 µM (≈ 3.2 µg/mL), the “MIC80 E. coli” value [3] is reported as 19.8 µM (≈ 4.8 µg/mL) and the MIC80 [3] is reported as less than 30 µM. It also gave a CC50 [4] greater than 50 µM, a CC50 [5] of 67 µM and an MIC80 [6] of less than 20 µM. For the same compound, the MIC80 ([11]; Citrobacter koseri) was 33.3 µM (≈ 8.07 µg/mL), the MIC80 ([12]; Enterobacter cloacae) was 33.3 µM (≈ 8.07 µg/mL) and the MIC80 ([13]; Klebsiella pneumoniae, Kp1 (Klebsiella pneumonia)) was greater than 33.3 µM. The MIC80 ([13]; Klebsiella pneumoniae, Kp6 (Klebsiella pneumonia)) was greater than 33.3 µM, the MIC80 ([14]; Escherichia coli, Ec1 (MDR E. coli)) was 33.3 µM (≈ 8.07 µg/mL) and the MIC80 ([14]; Escherichia coli, Ec2 (MDR E. coli)) was 14.8 µM (≈ 3.59 µg/mL). It also gave an MIC80 ([14]; Escherichia coli, Ec3 (MDR E. coli)) of 22.2 µM (≈ 5.38 µg/mL), an MIC80 ([14]; Escherichia coli, Ec4 (MDR E. coli)) of 33.3 µM (≈ 8.07 µg/mL) and an MIC80 ([15]; read-out: MIC80 on MDR Enterobacteriaceae) of no more than 20 µM. For the same compound, the MIC80 ([16]; Morganella morganii) was greater than 33.3 µM.
